Columns and labels:
[1] = tested on: mutated form of SPT (C133W); type: cell-based; conditions: HEK293 C133W; for SPT activity: fumonisin B1 24 h, 1 mM L-cycloserine, 10 mM D-serine
Procedure: Cells were cultivated in normal media without any supplementation (A) or in the presence of 10 mM L-alanine (B), 10 mM glycine (C); 1 mM L-cycloserine (D); 10 mM D-alanine (E), 10 mM D-serine (F) or 10 mM L-serine (G).
HEK293 cells expressing a mutated form of SPT (C133W) were cultured in the presence of various amino acids and structurally related compounds. The cells were additionally treated with fumonisin B1 (see Example 1).
(§1) A further suitable method to screen for putative suppressors of deoxy-sphingolipid synthesis is as follows: a suitable cell line (e.g. HEK293) is cultured to approximately 60% confluency. The compound of interest is added to the culture medium in the appropriate concentration. Additionally, fumonisin B1 (FB1) is added to a final concentration of 10 μg/ml. After 24 h of incubation, cells are washed with PBS and harvested and an aliquot separated for cell counting. The remaining cells are pelleted and extracted in 500 μl extraction buffer (4 volumes MeOH/KOH+1 volume CHCl3), including an internal reference standard (e.g. deuteriated (d7)-sphinganine, (d7)-sphingosine or synthetic C17-sphingosine). Subsequently, 500 μl chloroform, 500 μl alkaline water and 100 μl 2N ammonia are added, followed by centrifugation (120000×g, 5 min). The upper phase is discarded and the organic phase washed twice with alkaline water. Lipids are dried under a stream of N2 and resolubilized in 50 μl ethanol (95%) and 100 μl methanol:H2O (85:15). The lipids are finally derivatized with o-phthaldialdehyde (OPA) and analysed by LC-MS. OPA derivates are separated on a C18 column. Mobile phase is ammonium acetate (5 mM):methanol=17:83 (25 min, isocratic), followed by a wash with 100% methanol (5 min) at a flow rate of 300 μl/min. Deoxysphingoid bases are ionised by APCI (atmospheric pressure chemical ionisation) and analysed in positive ion mode.

cellular SPT activity = test: Accumulation of sphingoid bases in HEK 293 wt cells treated with fumonisin B1 and cytostatics; type: cell-based; conditions: for DoxSA generation / SA (sphinganine) generation / accumulation: fumonisin B1, increasing concentrations of drug
Procedure: HEK 293 wt cells were cultured in the presence of increasing concentrations of paclitaxel (FIG. 6-I), etoposide (FIG. 6-II) and thalidomide (FIG. 6-III). The cells were additionally treated with fumonisin B1 (FB1), an inhibitor of ceramide synthase (CerS). The inhibition of CerS leads to an intracellular accumulation of the SPT products, namely sphinganine, deoxy-sphinganine. Since the SPT reaction is the rate limiting step in the de novo synthesis pathway, the amount of accumulated sphingoid bases is a measure of the cellular SPT activity. […] Etoposide increased sphinganine and DoxSA production. […] In contrast to paclitaxel and etiposide, the non-cytostatic thalidomide (FIG. 6-III) had no effect.
as §1

SPT (wt enzyme) = test: DoxSA formation in HEK293 wt cells at various L-serine:L-alanine ratios in the presence of FB1; type: cell-based; conditions: increasing L-serine medium concentrations, varying L-alanine concentrations
Procedure: (§2) HEK293 wt cells (FIG. 7-I) and Hek cells expressing various mutant forms of SPT (wt, C133W, C133Y, V144D) (FIG. 7-II) were cultured at various L-serine:L-alanine ratios in the presence of FB1 (see above Example 1). […] In the second approach L-alanine concentrations were held constant at 2 mM.
as §1, with “The upper phase is discarded and the organic phase washed twice with alkaline water. Lipids are dried under a stream of N2 and resolubilized in 50 μl ethanol (95%) and 100 μl methanol:H2O (85:15).” left out, “OPA derivates are separated on a C18 column. Mobile phase is ammonium acetate (5 mM):methanol=17:83 (25 min, isocratic), followed by a wash with 100% methanol (5 min) at a flow rate of 300 μl/min.” left out

[2] = tested on: mutant forms of SPT (C133W, C133Y, V144D); test: DoxSA formation in Hek cells expressing mutant forms of SPT at increasing L-serine in the presence of FB1; type: cell-based; conditions: HSAN1 mutants C133W, increasing L-serine medium concentrations, L-alanine constant at 2 mM
Procedure: as §2
as §1, with “The upper phase is discarded and the organic phase washed twice with alkaline water. Lipids are dried under a stream of N2 and resolubilized in 50 μl ethanol (95%) and 100 μl methanol:H2O (85:15).” left out, “OPA derivates are separated on a C18 column. Mobile phase is ammonium acetate (5 mM):methanol=17:83 (25 min, isocratic), followed by a wash with 100% methanol (5 min) at a flow rate of 300 μl/min.” left out

HSAN1 mice = test: L-serine or L-alanine enriched diet in transgenic HSAN1 mice (C133W SPTLC1); type: in vivo
Description: Mice received an L-serine or L-alanine enriched diet (10% L-Serine or L-Alanine w/w) for a period 15 days. […] Plasma deoxy-sphingolipid levels remained low during the whole treatment period (A, pmol/ml; B, days).
Transgenic mice expressing a mutant (C133W) form of SPTLC1 develop a peripheral neuropathy within 10 to 15 months of life. The development of a neuropathy in these HSAN1 mice correlates with highly elevated deoxy-sphinganine and deoxy-sphingosine plasma levels.

HSAN1 patients = test: Oral L-serine supplementation in HSAN1 patients (C133Y); type: in vivo, humans
Procedure: (A, weeks, B, μM; C, treatment phase; D, washout phase).
14 HSAN1 patients having the C133Y mutation received an oral serine supplementation for a period of 10 weeks followed by a wash out period of two weeks (FIG. 9). Patients were separated in a low dose and a high dose treatment group (n per group=7) receiving either 5 g or 10 g L-serine/day. The plasma sphingolipid composition was analyzed by an acid/base hydrolysis to release the free sphingoid bases. […] In both groups an up to 80% reduction in plasma deoxy-sphingolipid levels was observed. […] During the wash out phase the plasma deoxy-sphingolipid levels raised again.

[3] = fumonisin B1, 10 mM supplementation

Question: How did the SPT activity [1] turn out when `N[C@@H]1CON=C1O` [cycloserine, reference compound] was run?
Answer: generally inhibitory

Question: Which results are given for `COc1cc([C@@H]2c3cc4c(cc3[C@@H](O[C@@H]3O[C@@H]5CO[C@@H](C)O[C@H]5[C@H](O)[C@H]3O)[C@H]3COC(=O)[C@H]23)OCO4)cc(OC)c1O` [Etoposide, etoposide]?
Answer: concentration at which DoxSA showed a maximum (cellular SPT activity; fumonisin B1): 0.5 mM; DoxSA generation (cellular SPT activity): increased; SA (sphinganine) generation / accumulation (cellular SPT activity): increased in a dose dependant manner

Question: With `N[C@H](CO)C(=O)O` [D-serine] as the compound, how does the SPT activity [1] read?
Answer: generally inhibitory

Question: `N[C@@H](CO)C(=O)O` [L-serine] was tested. Which DoxSA formation (SPT (wt enzyme)) did it give?
Answer: significant decrease

Question: What about the DoxSA formation [2] of the same compound?
Answer: significant decrease

Question: And the DoxSA formation ([2]; listed as L-erine)?
Answer: efficiently inhibited

Question: What about the formation of sphinganine [1, 3] of the same compound?
Answer: stimulates the formation

Question: And the “generation of deoxy-sphingoid bases” value [1, 3]?
Answer: suppresses

Question: And the “plasma deoxy-sphinganine and deoxy-sphingosine levels vs untreated mice” value (HSAN1 mice; enriched diet 10% w/w for 15 days, 3-4 days after start of treatment)?
Answer: remarkable reduction

Question: What about the “reduction in plasma deoxy-sphinganine and deoxy-sphingosine levels” value (HSAN1 mice; enriched diet 10% w/w, after 4-5 days of treatment) of the same compound?
Answer: up to 80%

Question: What about the development of neuropathy (HSAN1 mice; enriched diet, until end of study (18 months), untreated controls neuropathic after 8 to 9 months) of the same compound?
Answer: did not develop a neuropathy

Question: What about the “difference between low and high dose group” value (HSAN1 patients; 5 g vs 10 g/day, plasma deoxy-sphingolipid levels) of the same compound?
Answer: No significant differences

Question: What about the “time to maximal suppression of plasma deoxy-sphinganine and deoxy-sphingosine levels” value (HSAN1 patients; HSAN1 patients C133Y, oral 5 g or 10 g/day) of the same compound?
Answer: 6 weeks

Question: And the “reduction in plasma deoxy-sphingolipid levels” value (HSAN1 patients; HSAN1 patients C133Y, oral 5 g or 10 g/day, 10 weeks, both groups)?
Answer: up to 80%

Question: What about the “deoxy-sphingolipid plasma levels during treatment period” value (HSAN1 patients; HSAN1 patients C133Y, oral treatment over ten weeks, until end of treatment) of the same compound?
Answer: remained suppressed

Question: And the “plasma deoxy-sphingolipid levels during wash out phase” value (HSAN1 patients; two weeks wash out after 10 weeks of treatment)?
Answer: raised again

Question: Which formation of deoxymethyl-sphinganine [1, 3] does the source give for `NCC(=O)O` [glycine, reference compound] here?
Answer: stimulate the formation

Question: Which results are given for `CC(=O)O[C@H]1C(=O)[C@@]2(C)[C@H]([C@H](OC(=O)c3ccccc3)[C@]3(O)C[C@H](OC(=O)[C@H](O)[C@@H](NC(=O)c4ccccc4)c4ccccc4)C(C)=C1C3(C)C)[C@]1(OC(C)=O)CO[C@@H]1C[C@@H]2O` [Paclitaxel, paclitaxel]?
Answer: DoxSA generation (cellular SPT activity): stimulated DoxSA generation in a dose dependant manner; SA (sphinganine) generation / accumulation (cellular SPT activity): not altered

Question: `O=C1CCC(N2C(=O)c3ccccc3C2=O)C(=O)N1` (centres unmarked) [thalidomide] was tested. Which DoxSA generation (cellular SPT activity) did it give?
Answer: no effect

Question: And the “SA (sphinganine) generation / accumulation” value (cellular SPT activity)?
Answer: no effect

Question: For `C[C@H](N)C(=O)O` [L-alanine, reference compound], which formation of deoxy-sphinganine [1, 3] is on record?
Answer: increased formation

Question: What about the plasma deoxy-sphingolipid levels (HSAN1 mice; enriched diet) of the same compound?
Answer: increased

Question: And the “time to first neuropathic symptoms” value (HSAN1 mice; enriched diet)?
Answer: 2-3 months

Source: patent publication US20130005783A1, “Prevention And Treatment Of Diseases Caused By Elevated Levels Of Deoxy-Sphingolipids” (priority 2010, published 2013)
